From US12247033B2, “Triazole-substituted imidazo[1,2-a]pyrimidines as cGAS inhibitors” (GlaxoSmithKline Intellectual Property Development Limited, priority 2022, dated 2025)
Where a name gives a salt, the structure may show the parent alone.

Legend:
[1] = system: CGAS; test: CGAS whole blood cytokine release assay (384-well, BacMam stimulation, IP-10 by cytometric bead array); assay type: cell-based; conditions: Homo sapiens, 6 h; read-out: hWB pXC50 (converted)
Method in brief: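 Heparinised human donor whole blood mixed with serially diluted compound plus Null BacMam stimulus, incubated 6 h at 37° C, 5% CO2. Supernatant IP-10 quantified by cytometric bead array on flow cytometer (488 nm excitation, 585/40 nm emission); inhibition of IP-10 calculated.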

[2] = biological target: human CGAS (157-522) (Homo sapiens, UniProt Q8N884); test: biochemical;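 further: biochemical enzyme reaction, 2′3′-cGAMP product measured by RapidFire mass spectrometry (MRM) normalised to c-di-UMP internal standard, inhibition of product formation relative to high and low control wells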
Chain of human CGAS (157-522) (Q8N884 157-522): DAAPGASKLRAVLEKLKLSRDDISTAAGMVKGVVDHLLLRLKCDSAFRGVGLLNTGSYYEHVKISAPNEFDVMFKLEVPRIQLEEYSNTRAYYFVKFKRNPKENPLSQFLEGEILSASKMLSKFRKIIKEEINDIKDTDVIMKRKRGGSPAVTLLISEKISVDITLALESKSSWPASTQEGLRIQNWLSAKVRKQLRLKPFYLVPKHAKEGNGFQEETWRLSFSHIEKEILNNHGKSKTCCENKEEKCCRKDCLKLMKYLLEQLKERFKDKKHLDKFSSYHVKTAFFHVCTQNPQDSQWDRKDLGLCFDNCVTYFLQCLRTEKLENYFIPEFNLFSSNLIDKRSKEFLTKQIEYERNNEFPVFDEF
Procedure: Compounds were serially diluted 2, 3, or 4-fold in neat DMSO to generate 11-point dose response curves and then 250 nL compound or DMSO solution was transferred to Greiner 384-well V-bottom assay plates (Catalog #781280) using an Echo acoustic dispenser (Labcyte). A solution of 150 μM ATP, 150 μM GTP, 20 μM pppGpA (GTP-2′5′-AMP, custom synthesis from ChemGenes), and 10 μg/mL sheared salmon sperm DNA (Sigma, Catalog #D1626) in assay buffer (20 mM Trizma, pH 7.5, 10 mM magnesium chloride, 0.3 mM CHAPS, and 0.01% (w/v) bovine serum albumin) was added to columns 1-17, 19-24 of the plate at 12.5 μL/well using a Combi liquid handler (ThermoFisher). A 12.5 μL/well low control solution containing 150 μM ATP, 150 μM GTP, 20 μM pppGpA in assay buffer was added to column 18 using the Combi. A 12.5 μL/well solution of 10-100 nM human CGAS (157-522) in assay buffer was then added to all wells of the plate using the Combi. […] Reactions were quenched by added 50 μL/well of 0.5% (v/v) trifluoroacetic acid (TFA) in mass spectrometry grade deionized water containing 5 μM cyclic-di-UMP (ci-di-UMP; Invivogen Catalog #tlrl-cdu) as the internal standard (IS). Plates were centrifuged for 1 min and then quenched reactions were analyzed using a RF-MS 300 system operating in a Multiple Reaction Monitoring (MRM) detection mode.
Samples (10 μL injection volume) were passed over a silica C18/type C solid phase extraction (SPE) cartridge for analyte (2′3′-cyclic guanosine monophosphate adenosine monophosphate (2′3′-cGAMP), product of biochemical reaction)/pppGpA/c-di-UMP IS adsorption. Adsorbed samples were desalted for 3000 ms using a 100% water eluent A/desalting solution. Afterwards, desalted samples were eluted using a 0.5% TFA in 20%/80% acetonitrile/water eluent B/elution solution directly into either a Sciex 4000, 5000 or 5500 triple quadrupole mass spectrometer (QQQ-MS) for MRM analyte/IS detection. QQQ-MS detection conditions were as follow: scan type: MRM; curtain (CUR) gas: 30 psi; nebulizer (GS1) gas: 50 psi; drying (GS2) gas: 60 psi; collisionally activated dissociation (CAD) gas: 12 relative setting; precursor ion (Q1) masses: 2′3′-cGAMP: m/z 675.1 Da/pppGpA: m/z 853.0 Da/c-di-UMP: m/z 613.1 Da; fragment ion (Q3) masses: 2′3′-cGAMP: m/z 524.1 Da/pppGpA: m/z 702.0 Da/c-di-UMP: 307.1 Da; declustering potentials (DPs): 2′3′-cGAMP: +81 V/pppGpA: +85 V/c-di-UMP: +85 V; entrance potential: +10 V (all analytes); collision energies (CEs): 2′3′-cGAMP: +33 V/pppGpA: +36 V/c-di-UMP: +35 V; collision cell exit potential (CXP): +10 V (all analytes); interface heater (Sciex 4000/5000 only): on; Q1 resolution: unit (all analyte); Q3 resolution: unit (all analytes). The area under the curve (AUC) for all analytes was obtained using the RapidFire Integrator software application to calculate AUC-2′3′-cGAMP/AUC-c-di-UMP intensity ratio. Percent product formation was calculated by comparison to column 6 (high control)/column 18 (low control) responses. The % product inhibition was calculated as follows:
[formula] where A is the minimum response, B is the maximum response, C is the log10*XC50, D is the slope factor, and x is the log10 compound concentration [M] in ABASE XE.

IC50 [1] [nM]	IC50 [2] [nM]	SMILES
316	7.94	FC(F)(F)c1n[nH]c(-c2nc3nc4c(cn3c2-c2cnc[nH]2)CNCC4(F)F)n1 [Example 83, 13,13-difluoro-6-(1H-imidazol-5-yl)-5-[3-(trifluoromethyl)-1H-1,2,4-triazol-5-yl]-2,4,7,11-tetraazatricyclo[7.4.0.0^3,^7]trideca-1,3,5,8-tetraene]
794	6.31	FC(F)(F)c1ccn2c(-c3cnc[nH]3)c(-c3nc(C(F)(F)F)n[nH]3)nc2n1 [Example 3, 5-[3-(1H-imidazol-5-yl)-7-(trifluoromethyl)imidazo[1,2-a]pyrimidin-2-yl]-3-(trifluoromethyl)-1H-1,2,4-triazole]
1000	10	CC(O)c1ccn2c(-c3cnc[nH]3)c(-c3nc(C(F)(F)F)n[nH]3)nc2n1 (stereo not shown) [Example 13, 1-[3-(1H-imidazol-5-yl)-2-[3-(trifluoromethyl)-1H-1,2,4-triazol-5-yl]imidazo[1,2-a]pyrimidin-7-yl]ethan-1-ol]
398	3.98	FC(F)(F)COCc1cnc2nc(-c3nc(C(F)(F)F)n[nH]3)c(-c3cnc[nH]3)n2c1 [Example 111, 5-[3-(1H-imidazol-5-yl)-6-[(2,2,2-trifluoroethoxy)methyl]imidazo[1,2-a]pyrimidin-2-yl]-3-(trifluoromethyl)-1H-1,2,4-triazole]
631	12.6	CC(NCc1ccn2c(-c3c[nH]cn3)c(-c3nc(C(F)(F)F)n[nH]3)nc2n1)C(F)(F)F (stereo not shown) [Example 118, {[3-(1H-imidazol-4-yl)-2-[3-(trifluoromethyl)-1H-1,2,4-triazol-5-yl]imidazo[1,2-a]pyrimidin-7-yl]methyl}(1,1,1-trifluoropropan-2-yl)amine]
316	7.94	CCOCCOCc1cnc2nc(-c3nc(C(F)(F)F)n[nH]3)c(-c3cnc[nH]3)n2c1 [Example 129, 5-{6-[(2-ethoxyethoxy)methyl]-3-(1H-imidazol-5-yl)imidazo[1,2-a]pyrimidin-2-yl}-3-(trifluoromethyl)-1H-1,2,4-triazole]
63.1	3.98	FC(F)c1n[nH]c(-c2nc3ncc(Cl)cn3c2-c2c[nH]cn2)n1 [Example 4, 5-[6-chloro-3-(1H-imidazol-4-yl)imidazo[1,2-a]pyrimidin-2-yl]-3-(difluoromethyl)-1H-1,2,4-triazole]
398	2	FC(F)(F)c1n[nH]c(-c2nc3ncc(Br)cn3c2-c2cnc[nH]2)n1 [Example 77, 5-[6-bromo-3-(1H-imidazol-5-yl)imidazo[1,2-a]pyrimidin-2-yl]-3-(trifluoromethyl)-1H-1,2,4-triazole]
251	7.94	COCC(C)COCc1cnc2nc(-c3nc(C(F)(F)F)n[nH]3)c(-c3cnc[nH]3)n2c1 (stereo not shown) [Example 127, 5-[3-(1H-imidazol-5-yl)-6-[(3-methoxy-2-methylpropoxy)methyl]imidazo[1,2-a]pyrimidin-2-yl]-3-(trifluoromethyl)-1H-1,2,4-triazole]
398	7.94	FC(F)(F)c1n[nH]c(-c2nc3ncc(COC4CCOC4)cn3c2-c2cnc[nH]2)n1 (stereo not shown) [Example 78, 5-[3-(1H-imidazol-5-yl)-6-[(oxolan-3-yloxy)methyl]imidazo[1,2-a]pyrimidin-2-yl]-3-(trifluoromethyl)-1H-1,2,4-triazole]
316	3.98	FC(F)(F)c1n[nH]c(-c2nc3ncc(COCCC4CCCO4)cn3c2-c2cnc[nH]2)n1 (stereo not shown) [Example 141, 5-[3-(1H-imidazol-5-yl)-6-{[2-(oxolan-2-yl)ethoxy]methyl}imidazo[1,2-a]pyrimidin-2-yl]-3-(trifluoromethyl)-1H-1,2,4-triazole]
10000	10	CC(=O)N1CCC(COCc2cnc3nc(-c4nc(C(F)(F)F)n[nH]4)c(-c4c[nH]cn4)n3c2)C1 (stereo not shown) [Example 149, 1-[3-({[3-(1H-imidazol-4-yl)-2-[3-(trifluoromethyl)-1H-1,2,4-triazol-5-yl]imidazo[1,2-a]pyrimidin-6-yl]methoxy}methyl)pyrrolidin-1-yl]ethan-1-one]
501	3.98	CCCOc1cnc2nc(-c3nc(C(F)(F)F)n[nH]3)c(-c3cnc[nH]3)n2c1 [Example 154, 5-[3-(1H-imidazol-5-yl)-6-propoxyimidazo[1,2-a]pyrimidin-2-yl]-3-(trifluoromethyl)-1H-1,2,4-triazole]
200	6.31	COC(C)c1cnc2nc(-c3nc(C(F)(F)F)n[nH]3)c(-c3c[nH]cn3)n2c1 (stereo not shown) [Example 165, 5-[3-(1H-imidazol-4-yl)-6-(1-methoxyethyl)imidazo[1,2-a]pyrimidin-2-yl]-3-(trifluoromethyl)-1H-1,2,4-triazole]
1580	2.51	FC(F)(F)c1n[nH]c(-c2nc3ncc(Cc4ccccc4)cn3c2-c2cnc[nH]2)n1 [Example 89, 5-[6-benzyl-3-(1H-imidazol-5-yl)imidazo[1,2-a]pyrimidin-2-yl]-3-(trifluoromethyl)-1H-1,2,4-triazole]
398	10	FC(F)c1ccn2c(-c3cnc[nH]3)c(-c3nc(C(F)(F)F)n[nH]3)nc2n1 [Example 95, 5-[7-(difluoromethyl)-3-(1H-imidazol-5-yl)imidazo[1,2-a]pyrimidin-2-yl]-3-(trifluoromethyl)-1H-1,2,4-triazole]
200	3.16	FC(F)(F)c1n[nH]c(-c2nc3nc4c(cn3c2-c2cnc[nH]2)CCC4)n1 [Example 133, 12-(1H-imidazol-5-yl)-11-[3-(trifluoromethyl)-1H-1,2,4-triazol-5-yl]-1,8,10-triazatricyclo[7.3.0.0^3,^7]dodeca-2,7,9,11-tetraene]
200	3.16	FC(F)c1ccn2c(-c3cnc[nH]3)c(-c3nc(C(F)F)n[nH]3)nc2n1 [Example 8, 3-(difluoromethyl)-5-[7-(difluoromethyl)-3-(1H-imidazol-5-yl)imidazo[1,2-a]pyrimidin-2-yl]-1H-1,2,4-triazole]
398	7.94	FC(F)(F)c1n[nH]c(-c2nc3ncc(COCCC4CCOC4)cn3c2-c2cnc[nH]2)n1 (stereo not shown) [Example 139, 5-[3-(1H-imidazol-5-yl)-6-{[2-(oxolan-3-yl)ethoxy]methyl}imidazo[1,2-a]pyrimidin-2-yl]-3-(trifluoromethyl)-1H-1,2,4-triazole]
1260	7.94	FC(F)(F)c1n[nH]c(-c2nc3nc4c(cn3c2-c2cnc[nH]2)CNCC4)n1 [Example 74, 6-(1H-imidazol-5-yl)-5-[3-(trifluoromethyl)-1H-1,2,4-triazol-5-yl]-2,4,7,11-tetraazatricyclo[7.4.0.0^3,^7]trideca-1,3,5,8-tetraene]
398	3.98	FC(F)(F)c1n[nH]c(-c2nc3nc4c(cn3c2-c2cnc[nH]2)CCCC4)n1 [Example 134, 5-[3-(1H-imidazol-5-yl)-6H,7H,8H,9H-imidazo[2,1-b]quinazolin-2-yl]-3-(trifluoromethyl)-1H-1,2,4-triazole]
100	3.16	CCOCc1cnc2nc(-c3nc(C(F)(F)F)n[nH]3)c(-c3cnc[nH]3)n2c1 [Example 79, 5-[6-(ethoxymethyl)-3-(1H-imidazol-5-yl)imidazo[1,2-a]pyrimidin-2-yl]-3-(trifluoromethyl)-1H-1,2,4-triazole]
1000	10	FC(F)c1n[nH]c(-c2nc3ncccn3c2-c2cn[nH]c2)n1 [Example 90, 3-(difluoromethyl)-5-[3-(1H-pyrazol-4-yl)imidazo[1,2-a]pyrimidin-2-yl]-1H-1,2,4-triazole]
2510	3.98	CC(COCc1cnc2nc(-c3nc(C(F)(F)F)n[nH]3)c(-c3c[nH]cn3)n2c1)n1ccnc1 (stereo not shown) [Example 143, 5-(6-{[2-(1H-imidazol-1-yl)propoxy]methyl}-3-(1H-imidazol-4-yl)imidazo[1,2-a]pyrimidin-2-yl)-3-(trifluoromethyl)-1H-1,2,4-triazole]
794	3.98	OCCCCCOCc1cnc2nc(-c3nc(C(F)(F)F)n[nH]3)c(-c3cnc[nH]3)n2c1 [Example 142, 5-{[3-(1H-imidazol-5-yl)-2-[3-(trifluoromethyl)-1H-1,2,4-triazol-5-yl]imidazo[1,2-a]pyrimidin-6-yl]methoxy}pentan-1-ol]
126	2.51	COCc1cnc2nc(-c3nc(C(F)(F)F)n[nH]3)c(-c3cnc[nH]3)n2c1 [Example 69, 5-[3-(1H-imidazol-5-yl)-6-(methoxymethyl)imidazo[1,2-a]pyrimidin-2-yl]-3-(trifluoromethyl)-1H-1,2,4-triazole]
5010	2000	O=C(O)CCOC(=O)OCn1cnc(-c2c(-c3nc(C(F)(F)F)nn3COC(=O)OCCC(=O)O)nc3ncccn23)c1 [Example 31, 3-({[(4-{2-[1-({[(2-carboxyethoxy)carbonyl]oxy}methyl)-3-(trifluoromethyl)-1H-1,2,4-triazol-5-yl]imidazo[1,2-a]pyrimidin-3-yl}-1H-imidazol-1-yl)methoxy]carbonyl}oxy)propanoic acid, trifluoroacetic acid salt]
3160	6.31	CCOCc1cn2c(-c3cnc[nH]3)c(-c3nc(C(F)F)n[nH]3)nc2nc1C(F)(F)F [Example 117, 3-(difluoromethyl)-5-[6-(ethoxymethyl)-3-(1H-imidazol-5-yl)-7-(trifluoromethyl)imidazo[1,2-a]pyrimidin-2-yl]-1H-1,2,4-triazole]

SMILES	IC50 [1] [nM]	IC50 [2] [nM]
O=C(CCCOP(=O)(O)O)OCn1cnc(-c2c(-c3nc(C(F)(F)F)nn3COC(=O)CCCOP(=O)(O)O)nc3ncccn23)c1 [Example 30, {4-oxo-4-[(5-{3-[1-({[4-(phosphonooxy)butanoyl]oxy}methyl)-1H-imidazol-4-yl]imidazo[1,2-a]pyrimidin-2-yl}-3-(trifluoromethyl)-1H-1,2,4-triazol-1-yl)methoxy]butoxy}phosphonic acid, trifluoroacetic acid salt]	1260	316
